Results on 14 compounds are retold here after patent publication US12134610B2, “Somatostatin subtype-2 receptor (SST2R) targeted therapeutics and uses thereof” (priority 2022, dated 2024).

SMILES strings stand for the structures. Read-outs that look alike come from different tables or passages of the source. Starred links: 1 amine or outer side, 2 acyl side, 3 side chain; linkers in the order of their positions; H or OH if unused. Non-standard residues stand in square brackets, D forms with d. Residues, ends and D or L forms follow the SMILES beside them. *: point of attachment. PABC(3-O-βDGlc) = O=C(OCc1ccc(N[*:1])c(O[C@@H]2O[C@H](CO)[C@@H](O)[C@H](O)[C@H]2O)c1)[*:2]; X1 = Cc1cc(F)cc(-c2cnc(NCCNC(=O)CCOCCC(=O)*)c(-c3nc4ccc(Cl)cc4[nH]3)c2N2CCC(N)CC2)c1; Dolaproine = CO[C@@H]([C@@H]1CCCN1)[C@@H](C)C(=O)O; Dil = CC[C@H](C)[C@H](NC)[C@@H](CC(=O)O)OC; PABC = O=C(OCc1ccc(N[*:1])cc1)[*:2]; X2 = C[C@@H](N*)[C@@H](O)c1ccccc1; Cya = N[C@@H](CS(=O)(=O)O)C(=O)O; Cit = NC(=O)NCCC[C@H](N)C(=O)O; NMeV = CN[C@H](C(=O)O)C(C)C

Common to all, as to format: cell-based
Test [1] concerns the target T1, human somatostatin receptor subtype 2 (Homo sapiens, UniProt P30874).
T1 construct: expressed in transfected cells
Briefly: Functional cAMP assay for SSTR2 agonists (HTRF) in CHO-K1 cells. Particulars: CHO-K1 cells stably expressing human SST2, 20 min. Put shortly:
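Agonism scored as loss of NKH477 (1.6 μM)-driven cAMP, with IBMX present, after 20 min, 37° C. exposure of stably transfected CHO-K1 cells to compound dilutions (typically 0-10,000 nM). Lysates read by time-resolved FRET; cAMP interpolated from standard curve and EC50 derived.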
In general terms: cAMP levels reflect the balance of adenylyl cyclase and phosphodiesterase activity.

A further test addresses T2, SST2 (Homo sapiens, UniProt P30874).
T2 construct: host or cells: PathHunter CHO-K1 SST2 cells
Briefly: PathHunter CHO-K1 SST2 internalization assay. The note with it: PathHunter CHO-K1 SST2, 90 min. A digest of the protocol: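 IC50 comes from four-parameter curves on background-corrected duplicates of Beta-Glo luminescence, read after 60 min at room temperature in the dark. Before that, CHO-K1 SST2 internalization cells (48 h post-seeding) received SMDC as eleven threefold dilutions, 10 uM highest final, for 90 min at 37 C.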

The test system of test [2] is NCI-H524 (ATCC) human small cell lung cancer cells. A digest of the protocol:
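CellTiter-Glo luminescence after a 2 h SMDC pulse (top dose 1 uM, 2-fold dilutions, 11 points), medium wash, then 70 h recovery. Cells were seeded at 5,000/well and dosed 24 h later. % inhibition vs control gave IC50 via four-parameter fit.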

T1 sequence (P30874 whole entry): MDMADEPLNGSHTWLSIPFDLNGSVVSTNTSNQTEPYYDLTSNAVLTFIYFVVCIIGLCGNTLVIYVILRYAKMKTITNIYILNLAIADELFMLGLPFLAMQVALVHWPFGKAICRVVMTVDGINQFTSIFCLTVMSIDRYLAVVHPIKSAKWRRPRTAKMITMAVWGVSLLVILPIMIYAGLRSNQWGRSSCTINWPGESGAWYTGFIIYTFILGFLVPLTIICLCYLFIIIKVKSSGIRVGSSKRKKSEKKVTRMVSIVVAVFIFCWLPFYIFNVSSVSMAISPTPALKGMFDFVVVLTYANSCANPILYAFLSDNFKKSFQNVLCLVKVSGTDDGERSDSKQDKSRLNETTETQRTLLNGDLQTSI
T2 sequence (P30874 whole entry): as above

A word on the EC50: it is the concentration giving half of the maximal effect. For `CC[C@H](C)[C@@H]([C@@H](CC(=O)N1CCC[C@H]1[C@H](OC)[C@@H](C)C(=O)N[C@H](C)[C@@H](O)c1ccccc1)OC)N(C)C(=O)[C@@H](NC(=O)[C@H](C(C)C)N(C)C(=O)OCc1ccc(NC(=O)[C@H](CCCNC(N)=O)NC(=O)[C@@H](NC(=O)[C@@H](CCC(=O)O)NC(=O)[C@@H](CCC(=O)O)NC(=O)CCOCCC(=O)NCCNc2ncc(-c3cc(C)cc(F)c3)c(N3CCC(N)CC3)c2-c2nc3ccc(Cl)cc3[nH]2)C(C)C)cc1)C(C)C` [Compound 103] (X1-[dE][dE]V[Cit][PABC][NMeV]V[Dil][Dolaproine]-X2), the EC50 came out at 0.26 nM in test [1] (read-out: hSST2 cAMP Avg EC50), 24 nM at SST2 (read-out: Internalization EC50) and 620 nM in test [2] (2 h).
On the same counts, the results for `CC[C@H](C)[C@@H]([C@@H](CC(=O)N1CCC[C@H]1[C@H](OC)[C@@H](C)C(=O)N[C@H](C)[C@@H](O)c1ccccc1)OC)N(C)C(=O)[C@@H](NC(=O)[C@H](C(C)C)N(C)C(=O)OCc1ccc(NC(=O)[C@H](CCCNC(N)=O)NC(=O)[C@@H](NC(=O)CCCCC(=O)NCCNc2ncc(-c3cc(C)cc(F)c3)c(N3CCC(N)CC3)c2-c2nc3ccc(Cl)cc3[nH]2)C(C)C)c(O[C@@H]2O[C@H](C(=O)O)[C@@H](O)[C@H](O)[C@H]2O)c1)C(C)C` [Compound 133] are 0.11 nM, 6 nM and 34 nM.
For `CC[C@H](C)[C@@H]([C@@H](CC(=O)N1CCC[C@H]1[C@H](OC)[C@@H](C)C(=O)N[C@H](C)[C@@H](O)c1ccccc1)OC)N(C)C(=O)[C@@H](NC(=O)[C@H](C(C)C)N(C)C(=O)OCc1ccc(NC(=O)[C@H](C)NC(=O)[C@@H](NC(=O)CCOCCC(=O)NCCNc2ncc(-c3cc(C)cc(F)c3)c(N3CCC(N)CC3)c2-c2nc3ccc(Cl)cc3[nH]2)C(C)C)cc1C(=O)NCCN)C(C)C` [Compound 86], the EC50 in test [1] (read-out: hSST2 cAMP Avg EC50) stood at 0.36 nM; at SST2 (read-out: Internalization EC50) it was 15 nM; in test [2] (2 h), 1.1 nM.
As to `CC[C@H](C)[C@@H]([C@@H](CC(=O)N1CCC[C@H]1[C@H](OC)[C@@H](C)C(=O)N[C@H](C)[C@@H](O)c1ccccc1)OC)N(C)C(=O)[C@@H](NC(=O)[C@H](C(C)C)N(C)C(=O)OCc1ccc(NC(=O)[C@H](CCCNC(N)=O)NC(=O)[C@@H](NC(=O)[C@H](CCC(=O)O)NC(=O)CCOCCOCCOCCOCCC(=O)NCCNc2ncc(-c3cc(C)cc(F)c3)c(N3CCC(N)CC3)c2-c2nc3ccc(Cl)cc3[nH]2)C(C)C)cc1C(=O)NCCN)C(C)C` [Compound 47], the EC50 in test [1] (read-out: hSST2 cAMP Avg EC50) stood at 0.091 nM; on SST2 (read-out: Internalization EC50), 9 nM; in test [2] (2 h) it was 18.7 nM.
On the same counts, the results for `CC[C@H](C)[C@@H]([C@@H](CC(=O)N1CCC[C@H]1[C@H](OC)[C@@H](C)C(=O)N[C@H](C)[C@@H](O)c1ccccc1)OC)N(C)C(=O)[C@@H](NC(=O)[C@H](C(C)C)N(C)C(=O)OCc1ccc(NC(=O)[C@H](CCCNC(N)=O)NC(=O)[C@@H](NC(=O)CCOCCNC(=O)CN2CCN(CC(=O)O)CCN(CC(=O)NCCOCCOCCOCCOCCC(=O)NCCNc3ncc(-c4cc(C)cc(F)c4)c(N4CCC(N)CC4)c3-c3nc4ccc(Cl)cc4[nH]3)CC2)C(C)C)cc1)C(C)C` [Compound 43] are 0.29 nM, 18.1 nM and 82.6 nM.
For the compound `CC[C@H](C)[C@@H]([C@@H](CC(=O)N1CCC[C@H]1[C@H](OC)[C@@H](C)C(=O)N[C@H](C)[C@@H](O)c1ccccc1)OC)N(C)C(=O)[C@@H](NC(=O)[C@H](C(C)C)N(C)C(=O)OCc1ccc(NC(=O)[C@H](CCCNC(N)=O)NC(=O)[C@@H](NC(=O)[C@H](CS(=O)(=O)O)NC(=O)CCOCCC(=O)NCCNc2ncc(-c3cc(C)cc(F)c3)c(N3CCC(N)CC3)c2-c2nc3ccc(Cl)cc3[nH]2)C(C)C)cc1)C(C)C` [Compound 83] (X1-[Cya]V[Cit][PABC][NMeV]V[Dil][Dolaproine]-X2), the EC50 amounted to 0.11 nM in test [1] (read-out: hSST2 cAMP Avg EC50), 2.9 nM on SST2 (read-out: Internalization EC50) and 20 nM in test [2] (2 h).
As to `CC[C@@]1(O)C(=O)OCc2c1cc1n(c2=O)Cc2c-1nc1cc(F)c(C)c3c1c2[C@@H](NC(=O)CCOCCC(=O)NCCNc1ncc(-c2cc(C)cc(F)c2)c(N2CCC(N)CC2)c1-c1nc2ccc(Cl)cc2[nH]1)CC3` [Compound 78, N-{2-[4-(4-amino-1-piperidyl)-3-(6-chloro-1H-1,3-benzimidazol-2-yl)-5-(3-fluoro-5-tolyl)-2-pyridylamino]ethyl}3-(2-{N-(10S,23S)-10-ethyl-18-fluoro-10-hydroxy-19-methyl-5,9-dioxo-8-oxa-4,15-diazahexacyclo[14.7.1.0^2,^14.0^4,^13.0^6,^11.0^20,^24]tetracosa-1,6(11),12,14,16,18,20(24)-heptaen-23-ylcarbamoyl}ethoxy)propionamide], the EC50 in test [1] (hSST2 cAMP Avg EC50 (nM)) was determined as 0.23 nM; on SST2 (Internalization EC50 (nM)), 0.77 nM; in test [2] (2 h treatment, washout, additional 70 h, read-out: H524 EC50) it was 170 nM.
Consider `CC[C@H](C)[C@@H]([C@@H](CC(=O)N1CCC[C@H]1[C@H](OC)[C@@H](C)C(=O)N[C@H](C)[C@@H](O)c1ccccc1)OC)N(C)C(=O)[C@@H](NC(=O)[C@H](C(C)C)N(C)C(=O)OCc1ccc(NC(=O)[C@H](CCCNC(N)=O)NC(=O)[C@@H](NC(=O)[C@H](CC(=O)O)NC(=O)[C@H](CC(=O)O)NC(=O)[C@H](CC(=O)O)NC(=O)CCOCCC(=O)NCCNc2ncc(-c3cc(C)cc(F)c3)c(N3CCC(N)CC3)c2-c2nc3ccc(Cl)cc3[nH]2)C(C)C)cc1)C(C)C` [Compound 108] (X1-DDDV[Cit][PABC][NMeV]V[Dil][Dolaproine]-X2), for which the EC50 in test [1] (read-out: hSST2 cAMP Avg EC50) worked out at 1.9 nM; on SST2 (read-out: Internalization EC50), 53 nM; in test [2] (2 h), 3300 nM.
For the compound `CC[C@H](C)[C@@H]([C@@H](CC(=O)N1CCC[C@H]1[C@H](OC)[C@@H](C)C(=O)N[C@H](C)[C@@H](O)c1ccccc1)OC)N(C)C(=O)[C@@H](NC(=O)[C@H](C(C)C)N(C)C(=O)OCc1ccc(NC(=O)[C@H](CCCNC(N)=O)NC(=O)[C@@H](NC(=O)[C@H](CCC(=O)O)NC(=O)CCOCCOCCOCCOCCC(=O)NCCNc2ncc(-c3cc(C)cc(F)c3)c(N3CCC(N)CC3)c2-c2nc3ccc(Cl)cc3[nH]2)C(C)C)cc1)C(C)C` [Compound 52], the EC50 turned out to be 0.24 nM in test [1] (read-out: hSST2 cAMP Avg EC50), 9.1 nM on SST2 (read-out: Internalization EC50) and 48 nM in test [2] (2 h).
Take `COc1cc2cc(c1Cl)N(C)C(=O)CC(OC(=O)[C@@H](C)N(C)C(=O)CCSSCCNC(=O)CN1CCN(CC(=O)O)CCN(CC(=O)NCCNc3ncc(-c4cc(C)cc(F)c4)c(N4CCC(N)CC4)c3-c3nc4ccc(Cl)cc4[nH]3)CC1)[C@]1(C)OC1[C@@H](C)C1C[C@@](O)(NC(=O)O1)[C@H](OC)/C=C/C=C(\C)C2` (stereo partly drawn) [Compound 9]: the EC50 in test [1] (read-out: hSST2 cAMP Avg EC50) came out at 0.13 nM; on SST2 (read-out: Internalization EC50), 7.7 nM; in test [2] (2 h), 379 nM.
`CC[C@H](C)[C@@H]([C@@H](CC(=O)N1CCC[C@H]1[C@H](OC)[C@@H](C)C(=O)N[C@H](C)[C@@H](O)c1ccccc1)OC)N(C)C(=O)[C@@H](NC(=O)[C@H](C(C)C)N(C)C(=O)OCc1ccc(NC(=O)[C@H](CCCNC(N)=O)NC(=O)[C@@H](NC(=O)[C@H](CCC(N)=O)NC(=O)CCOCCC(=O)NCCNc2ncc(-c3cc(C)cc(F)c3)c(N3CCC(N)CC3)c2-c2nc3ccc(Cl)cc3[nH]2)C(C)C)c(O[C@@H]2O[C@H](CO)[C@@H](O)[C@H](O)[C@H]2O)c1)C(C)C` [Compound 136] (X1-QV[Cit][PABC(3-O-βDGlc)][NMeV]V[Dil][Dolaproine]-X2): the EC50 in test [1] (read-out: hSST2 cAMP Avg EC50) amounted to 0.23 nM; at SST2 (read-out: Internalization EC50) it was 6.7 nM; in test [2] (2 h), 5.8 nM.
Consider `CCC(C)C(C(CC(=O)N1CCCC1C(OC)C(C)C(=O)NC(C)C(O)c1ccccc1)OC)N(C)C(=O)C(NC(=O)C(C(C)C)N(C)C(=O)OCc1ccc(NC(=O)[C@H](CCCNC(N)=O)NC(=O)[C@@H](NC(=O)CCOCCC(=O)NCCNc2ncc(-c3cc(C)cc(F)c3)c(N3CCC(N)CC3)c2-c2nc3ccc(Cl)cc3[nH]2)C(C)C)cc1)C(C)C` (stereo in doubt) [Compound 26], for which the EC50 was 0.3 nM in test [1] (read-out: hSST2 cAMP Avg EC50), 11.6 nM at SST2 (read-out: Internalization EC50) and 10.6 nM in test [2] (2 h).
On the same counts, the results for `CC[C@H](C)[C@@H]([C@@H](CC(=O)N1CCC[C@H]1[C@H](OC)[C@@H](C)C(=O)N[C@H](C)[C@@H](O)c1ccccc1)OC)N(C)C(=O)[C@@H](NC(=O)[C@H](C(C)C)N(C)C(=O)OCc1ccc(NC(=O)[C@H](CCCNC(N)=O)NC(=O)[C@@H](NC(=O)CCCCC(=O)NCCNc2ncc(-c3cc(C)cc(F)c3)c(N3CCC(N)CC3)c2-c2nc3ccc(Cl)cc3[nH]2)C(C)C)c(O[C@@H]2O[C@H](C(=O)O)[C@@H](O)[C@H](O)[C@H]2O)c1)C(C)C` [Compound 63] are 0.16 nM, 16 nM and 13 nM.
On the same counts, the results for `CC[C@H](C)[C@@H]([C@@H](CC(=O)N1CCC[C@H]1[C@H](OC)[C@@H](C)C(=O)N[C@H](C)[C@@H](O)c1ccccc1)OC)N(C)C(=O)[C@@H](NC(=O)[C@H](C(C)C)N(C)C(=O)OCc1ccc(NC(=O)[C@H](CCCNC(N)=O)NC(=O)[C@@H](NC(=O)CCCC(=O)N(C)CC(=O)NCCNc2ncc(-c3cc(C)cc(F)c3)c(N3CCC(N)CC3)c2-c2nc3ccc(Cl)cc3[nH]2)C(C)C)c(O[C@@H]2O[C@H](C(=O)O)[C@@H](O)[C@H](O)[C@H]2O)c1)C(C)C` [Compound 141] are 0.22 nM, 2.3 nM and 11 nM.
